Where two headings read alike, the source gives them in different places.
Assays:
[1] = test system: Saccharomyces cerevisiae BY4741 URA3+; test: 5-FOA resistance frequency after URA3 mutagenesis; assay type: cell-based; conditions: one cycle of URA3 soft-randomized oligo pool mutagenesis; 5-FOA SD agar plates
From the text: To perform mutagenesis without necessitating additional genomic modifications and thus keeping the flexibility of the prokaryotic, pORTMAGE-based approach, the wild-type yeast homologous recombination system was employed to set-up overlapping, soft-randomized oligo pool-mediated mutagenesis. As the target, the endogenous URA3 gene in Saccharomyces cerevisiae BY4741 URA3+(SEQ ID NO:221), encoding orotidine 5-phosphate decarboxylase was chosen. Loss-of-function URA3 mutants can be readily selected based on their 5-Fluoroorotic Acid (5-FOA)-resistant phenotype on 5-FOA containing agar plates (DiCarlo et al. 2013). Therefore, mutagenesis was assayed as the fraction of resistant cells towards 5-FOA in diversified cell populations compared with the frequency of an unmutagenized control. Using 11 overlapping spiked oligo pools (SEQ ID NO:200-SEQ ID NO:210), a single overlapping, soft-randomized oligo pool-mediated mutagenesis cycle was performed.
Specifically, overlapping, soft-randomized oligos for S. cerevisiae URA3 were designed to target the non-coding strand of URA3 (YEL021W, SEQ ID NO:221). Spiked oligonucleotides were synthesized as described in Example 1. Yeast-mutagenesis was performed by delivering oligonucleotides to S. cerevisiae BY4741 URA3+ cells by electroporation. […] As the next step, URA3 mutagenesis was assessed by measuring 5-fluoroorotic acid (5-FOA) resistance frequency. […]

[2] = test system: parental Escherichia coli K-12 MG 1655
Method: Subsequently, the genotype of around 1000 resistant mutants was determined by High-Throughput (HT) SMRT sequencing.

E. coli K-12 MG1655 [3] = conditions: L28R
Method: As a measure of the effect of each individual genotype, relative IC75 values for each of the corresponding mutants were determined and compared to the IC75 of the wild-type.

E. coli K-12 MG1655 [4] = assay type: cell-based, Escherichia coli; conditions: ciprofloxacin two-fold higher than wild-type MIC, LB agar
Method: All four constituents were mutagenized along the full lengths of their corresponding protein-coding DNA regions in their native genomic context. Accordingly, a single round of rMAGE mutagenesis was performed in E. coli K-12 MG1655, using SEQ ID NO:37-SEQ ID NO:167.
However, ciprofloxacin also has lower binding affinity to the homologous DNA topoisomerase IV complex (Khodursky, Zechiedrich, and Cozzarelli 1995). Therefore, mutagenesis at the target sites was assayed by a ciprofloxacin frequency-of-resistance assay.

O=C(O)c1[nH]c(=O)[nH]c(=O)c1F [5-FOA, 5-Fluoroorotic Acid]
upregulation of the fraction of 5-FOA resistant cells compared to background level [1]: 77 fold

COc1cc(Cc2cnc(N)nc2N)cc(OC)c1OC [Trimethoprim, trimethoprim]
growth on trimethoprim solid media [2]: cannot grow | Trimethoprim IC75 value (E. coli K-12 MG1655 [3]; strain E. coli MG1655 1, folA C-58T, A26T, P39R): 1162 µg/mL | Trimethoprim IC75 value (E. coli K-12 MG1655 [3]; strain E. coli MG1655 2, folA C-58T, A26T, P39R): 1162 µg/mL | Trimethoprim IC75 value (E. coli K-12 MG1655 [3]; strain E. coli MG1655 3, folA C-58T, A26T, P39R): 1346 µg/mL | Trimethoprim IC75 value (E. coli K-12 MG1655 [3]; strain E. coli MG1655 4, folA C-58T, A26T, P39R): 1254 µg/mL | Trimethoprim IC75 value (E. coli K-12 MG1655 [3]; strain E. coli MG1655 5, folA C-58T, A26T, P39R): 1162 µg/mL | Trimethoprim IC75 value (E. coli K-12 MG1655 [3]; strain E. coli MG1655 6, folA C-58T, A26T, P39R): 1254 µg/mL | Trimethoprim IC75 value (E. coli K-12 MG1655 [3]; strain E. coli MG1655 7, folA C-58T): 448 µg/mL | Trimethoprim IC75 value (E. coli K-12 MG1655 [3]; strain E. coli MG1655 8, folA C-58T, T-74A, N147D): 448 µg/mL | Trimethoprim IC75 value (E. coli K-12 MG1655 [3]; strain E. coli MG1655 9, folA C-58T): 610 µg/mL | Trimethoprim IC75 value (E. coli K-12 MG1655 [3]; strain E. coli MG1655 10, folA C-58T): 610 µg/mL | Trimethoprim IC75 value (E. coli K-12 MG1655 [3]; strain E. coli MG1655 11, folA C-58T): 518 µg/mL | Trimethoprim IC75 value (E. coli K-12 MG1655 [3]; strain E. coli MG1655 12, folA C-43T, C-58T, A26D, H45R): 794 µg/mL

O=C(O)c1cn(C2CC2)c2cc(N3CCNCC3)c(F)cc2c1=O [ciprofloxacin]
frequency of ciprofloxacin resistant variants (E. coli K-12 MG1655 [4]; cell population mutagenized at gyrA, gyrB, parC, parE): 10^−4 | frequency of ciprofloxacin resistant variants (E. coli K-12 MG1655 [4]; non-mutagenised control cell populations): 1.83*10^−7
